Experimental findings from patent publication US20220306653A1, “MACROCYCLIC INHIBITORS OF MCL-1” (Janssen Pharmaceutica NV, priority 2019, published 2022) are described below.

The test system of test [1] is Molp8 multiple myeloma cell line. Put plainly: Molp8 multiple myeloma cell line survival assay using Annexin V and 7AAD. It is filed as cell-based, human. The note with it: live cell percent by Annexin V/7AAD flow cytometry, 3 days incubation; each independent run listed individually; read-out: MOLP8 Apoptosis IC50. From the text: Molp8 multiple myeloma cell line survival assay using Annexin V and 7AAD.
The Annexin V/7AAD principle is based on the location of phosphatidylserine in the plasma membrane and the integrity of the membrane barrier. During early apoptosis, phosphatidylserine loses its normal distribution patterns in the inner leaflet of the plasma membrane and appears on the exterior of the plasma membrane. Annexin proteins are calcium dependent phospholipid binding proteins and can bind phosphatidylserine on the outer membrane during cell death. The viability dye 7AAD is excluded from entering cells with intact plasma membranes but accumulates in cells that have lost membrane integrity. Annexin Fitc is excited by the 488 nm laser (max excitation: 490 nm, max emission: 525 nm) as is 7AAD (excitation: 488 nm, emission: 650 nm), which allows this assay to be completed on any multicolor flow cytometer.
The assay conditions were optimized using the following 1× reaction buffer: 5 mM HEPES (4-(2-hydroxyethyl)-1-piperazineethanesulfonic acid), 70 mM NaCl, 1.25 mM CaCl2, pH 7.4.
The Molp 8 cells were multiple myeloma, human, in suspension (*cells were counted 2× per week and culture density maintained between 0.5 and 1.5×10^6 cells per ml).
On Day 1, 5×10^4 live cells per well were plated in a 96-well U-bottom plate, with the cells plated in 100 uL RPMI+10% FBS. An 11-point compound dilution plate was prepared in 3-fold steps (Final concentration range 10 μM-0.1 nM) and added at a concentration of 1 μL per well. The plate was then incubated for 3 days at 37° C. and 5% CO2.
On Day 4, the cells were pelleted and the media discarded. The cells were then resuspended in 50 μL AnnexinV-Fitc (1:40 dilution) and 7AAD (1:100 dilution) in Annexin binding buffer, then incubated for 30 min @ room temperature in the dark. 50 μL binding buffer (100 uL total volume) was then added to the cells. There was no wash step required.
Within 2 hours, PeCy5 (7AAD) and Fitc (Annexin) channels were recorded using BD Canto, collecting a minimum per singlet of 10,000 events.
The activity of a test compound was calculated based on the live cell percentage. • LC=Median of the low control values • =Low control: cells without treatment (no greater than 100% live) • HC=Median of the high control values • =High control: cells treated with 10 uM drug (no less than 0% live)
A best-fit curve was fitted by a minimum sum of squares method to the plot of live cell percent vs. compound concentration. From this an IC50 value (inhibitory concentration causing 50% cytotoxicity) was obtained. An estimate of the slope of the plot in terms of the Hill coefficient was also obtained.
On the technique in general: In flow cytometry, cells or beads pass a laser one at a time.

Test [2] has as its system MOLP-8 human multiple myeloma cell line. Nature of the test: MOLP8 Caspase-Glo 3/7 luminescent assay. In kind it is cell-based. The note with it: 2 hours incubation; averaged values over all runs on all batches. From the text: MCL-1 is a regulator of apoptosis and is highly over-expressed in tumor cells that escape cell death. The assay evaluates the cellular potency of small-molecule compounds targeting regulators of the apoptosis pathway, primarily MCL-1, Bfl-1, Bcl-2, and other proteins of the Bcl-2 family. Protein-protein inhibitors disrupting the interaction of anti-apoptotic regulators with BH3-domain proteins initiate apoptosis.
The Caspase-Glo® 3/7 Assay is a luminescent assay that measures caspase-3 and -7 activities in purified enzyme preparations or cultures of adherent or suspension cells. The assay provides a proluminescent caspase-3/7 substrate, which contains the tetrapeptide sequence DEVD. This substrate is cleaved to release aminoluciferin, a substrate of luciferase used in the production of light. Addition of the single Caspase-Glo® 3/7 Reagent in an “add-mix-measure” format results in cell lysis, followed by caspase cleavage of the substrate and generation of a “glow-type” luminescent signal.
This assay uses the MOLP-8 human multiple myeloma cell line, which is sensitive to MCL-1 inhibition.
Cell cultures were maintained between 0.2 and 2.0×10^6 cells/mL. The cells were harvested by collection in 50 mL conical tubes. The cells were then pelleted at 500 g for 5 mins before removing supernatant and resuspension in fresh pre-warmed culture medium. The cells were counted and diluted as needed.
The assay reagent was prepared by transferring the buffer solution to the substrate vial and mixing. The solution may be stored for up to 1 week at 4° C. with negligible loss of signal.
Compounds were delivered in assay-ready plates (Proxiplate) and stored at −20° C.
Assays always include 1 reference compound plate containing reference compounds. The plates were spotted with 40 nL of compounds (0.5% DMSO final in cells; serial dilution; 30 μM highest conc. ⅓ dilution, 10 doses, duplicates). The compounds were used at room temperature and 4 μL of pre-warmed media was added to all wells except column 2 and 23. The negative control was prepared by adding 1% DMSO in media. The positive control was prepared by adding the appropriate positive control compound in final concentration of 60 μM in media. The plate was prepared by adding 4 μL negative control to column 23, 4 μL positive control to column 2 and 4 μL cell suspension to all wells in the plate. The plate with cells was then incubated at 37° C. for 2 hours. The assay signal reagent is the Caspase-Glo solution described above, and 8 μL was added to all wells. The plates were then sealed and measured after 30 minutes.
The activity of a test compound was calculated as percent change in apoptosis induction as follows:
LC=median of the Low Control values • =Central Reference in Screener • =DMSO • =0% ΠC=Median of the High Control values • =Scale Reference in Screener • =30 pM of positive control • =100% apoptosis induction
% Effect (AC50)=100−(sample−LC)/(HC−LC)*100
% Control=(sample/HC)*100
% Control min=(sample−LC)/(HC−LC)*100

Values joined by “and” are separate entries in the source; they are usually repeats but may differ in a detail not shown here. Equal values may be shown once.

In general, IC50 refers to the concentration that inhibits the measured activity by half. What is called AC50 is the midpoint of the concentration-response curve, whichever way the signal moves. High values mean weaker potency, low ones greater potency.

Regarding `Cc1c(C(=O)O)n2c3ccc(Cl)c(c13)-c1c(nn(C)c1C)CSCc1cc(n(C)n1)CSc1cc(c3ccccc3c1)OCCC2` (single isomer, unassigned) [Compound 1, 1^5-chloro-1^3,2^1,2^5,6^1-tetramethyl-1^1H,2^1H,6^1H-10-oxa-4,8-dithia-1(4,1)-indola-2(4,3),6(3,5)-dipyrazola-9(3,1)-naphthalenacyclotridecaphane-1^2-carboxylic acid], the IC50 in test [1] was 54 nM and 106 nM. Also, in test [2], the AC50 came to 50 nM.
As to `Cc1c(C(=O)O)n2c3ccc(Cl)c(c13)-c1c(nn(C)c1C)CSCc1cc(n(C)n1)CSc1cc(c3ccccc3c1)OCCC2` (single isomer, unassigned) [Compound 2, 1^5-chloro-1^3,2^1,2^5,6^1-tetramethyl-1′H,2′H,6H-10-oxa-4,8-dithia-1(4,1)-indola-2(4,3),6(3,5)-dipyrazola-9(3,1)-naphthalenacyclotridecaphane-1^2-carboxylic acid], the concentration for half-maximal inhibition (IC50) in test [1] was 1300 nM and 7040 nM. In test [2], the concentration at half-maximal activity (AC50) is 10300 nM.
